A short description of the data set: Solubility of the organic compound in nonpolar / polar solvent (added to 1.0 mL solvent to saturation point). It is filed as physicochemical. The text has this: The raw material(s) is not particularly limited as long as the raw material(s) contains the organic compound, and the raw materials may contain the organic compound and an additive. The additive is not particularly limited as long as an object of a present inventive subject matter is not interfered with, and may be a known additive. The mixing ratio of the additive in the raw materials is not particularly limited, however, preferably in a range of 0.00001 mol % to 30 mol %, and further preferably in a range of 0.0001 mol % to 10 mol %. […] According to a present inventive subject matter, the organic compound is added into the polar solvent that is 1.0 mL to saturation point, and the remaining organic compound in the polar solvent was measured by deducting the remaining amount of organic compound in the polar solvent from the total amount of added organic compound in the polar solvent. […] According to a present inventive subject matter, the organic compound is added into the nonpolar solvent that is 1.0 mL to saturation point, and the remaining organic compound in the nonpolar solvent was measured by deducting the remaining amount of organic compound in the nonpolar solvent from the total amount of added organic compound in the nonpolar solvent. […]

Molecules are shown by their SMILES. Converted amounts (≈) assume the structure as drawn.

For `c12c3c4c5c1c1c6c7c2c2c8c3c3c9c4c4c%10c5c5c1c1c6c6c%11c7c2c2c7c8c3c3c8c9c4c4c9c%10c5c5c1c1c6c6c%11c2c2c7c3c3c8c4c4c9c5c1c1c6c2c3c41` [C60 fullerene], the “dissolution into the solvent” value (Comparative Example 4, only 2-Pyrrolidone used as the solvent of the raw-material solution) is listed as “hardly dissolved”. In addition, the solubility to mesitylene (nonpolar solvent mesitylene, temperature of 25° C.) worked out at 1500 µg/mL (≈ 2080 µM).

The values are drawn from patent publication US20200332133A1, “SOLVENT AND METHOD OF FORMING ORGANIC FILM USING SOLVENT” (FLOSFIA INC., priority 2017, published 2020).
